Laboratory results reported in ChEMBL document CHEMBL1146389, “Synthesis and evaluation of prodrugs for anti-angiogenic pyrrolylmethylidenyl oxindoles” (2007).

Key:
[1] = test system: HUVEC; test: Inhibition of VEGF-stimulated angiogenesis in HUVECs; format: functional, cell-based; conditions: Homo sapiens
[2] = test system: HUVEC; test: Inhibition of VEGF-stimulated angiogenesis in HUVECs at 1 uM relative to control; format: functional; conditions: Homo sapiens

| Compound | Activity [1] | inhibition at 1 µM [2] |
| --- | --- | --- |
| Cc1cc(C)c(/C=C2\C(=O)N(Cc3ccc([N+](=O)[O-])cc3)c3ccccc32)[nH]1 | Dose-dependent effect | – |
| Cc1cc(C)c(/C=C2\C(=O)Nc3ccccc32)[nH]1 [SEMAXANIB] | – | 94% |
